From ChEMBL document CHEMBL3808277, “Identification of a Potent and Selective GPR4 Antagonist as a Drug Lead for the Treatment of Myocardial Infarction” (ACS Med Chem Lett, 2016)
Calls of active or inactive are those of the source. No cut-off for these calls is given here.

What was measured:
[1] = biological target: T1, G-prodeshotein coupled receptor 4 (Homo sapiens, UniProt P46093); experiment: Antagonist activity at N-terminal HA-tagged GPR4 (unknown origin) expressed in HEK293 cells assessed as pH dependent cAMP response element-driven transcriptional activity ratio at 10 uM at pH 7.2 incubated for 6 hrs by dual luciferase reporter gene assay relative to untreated control; type: functional, cell-based
Target sequence in this assay (P46093 whole entry, looked up): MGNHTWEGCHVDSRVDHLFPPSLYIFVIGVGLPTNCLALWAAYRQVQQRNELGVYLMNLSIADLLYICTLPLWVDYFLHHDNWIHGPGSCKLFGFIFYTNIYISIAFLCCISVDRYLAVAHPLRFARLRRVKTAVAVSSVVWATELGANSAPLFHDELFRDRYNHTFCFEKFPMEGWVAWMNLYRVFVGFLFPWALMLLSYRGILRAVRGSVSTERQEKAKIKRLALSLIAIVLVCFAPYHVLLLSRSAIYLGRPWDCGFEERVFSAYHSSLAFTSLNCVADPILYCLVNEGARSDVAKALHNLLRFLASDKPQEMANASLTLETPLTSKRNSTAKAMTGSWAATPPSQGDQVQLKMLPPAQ

[2] = biological target: T1, G-prodeshotein coupled receptor 4; experiment: Antagonist activity at N-terminal HA-tagged GPR4 (unknown origin) expressed in HEK293 cells assessed as inhibition of pH dependent cAMP response element-driven transcriptional activity at pH 7.2 incubated for 6 hrs by dual luciferase reporter gene assay; type: functional, cell-based
Target sequence in this assay (P46093 whole entry): as the sequence (P46093 whole entry, looked up) above

[3] = tested on: Mus musculus; experiment: (§1) Increase in survival of C57BL/6J mouse permanent left anterior descending coronary artery ligation model of myocardial infarction assessed as survival rate at 6.7 mg/kg/day, ip bid dosed from 1 day before to 7 day after myocardial infarction without operation day measured up to 28 days (reference value: 14.3 %); type: functional
[4] = tested on: Mus musculus; experiment: as §1, with “20” for “6.7”; type: functional
[5] = biological target: T2, G-protein coupled receptor 68 (Homo sapiens, UniProt Q15743); experiment: Antagonist activity at N-terminal HA-tagged OGR1 (unknown origin) expressed in HEK293 cells assessed as inhibition of pH dependent nuclear factor of activated T-cell activity at pH 7.2 incubated for 6 hrs by dual luciferase reporter gene assay; type: cell-based
[6] = biological target: T3, G-protein coupled receptor 65 (Homo sapiens, UniProt Q8IYL9); experiment: Antagonist activity at N-terminal HA-tagged TDAG8 receptor (unknown origin) expressed in HEK293 cells assessed as inhibition of pH dependent cAMP response element-driven transcriptional activity at pH 7.2 incubated for 6 hrs by dual luciferase reporter gene assay; type: functional, cell-based
[7] = biological target: T2, G-protein coupled receptor 68; experiment: Antagonist activity at N-terminal HA-tagged OGR1 (unknown origin) expressed in HEK293 cells assessed as inhibition of pH dependent nuclear factor of activated T-cell activity at >1 uM at pH 7.2 incubated for 6 hrs by dual luciferase reporter gene assay; type: cell-based
[8] = biological target: T3, G-protein coupled receptor 65; experiment: Antagonist activity at N-terminal HA-tagged TDAG8 receptor (unknown origin) expressed in HEK293 cells assessed as inhibition of pH dependent cAMP response element-driven transcriptional activity at >1 uM at pH 7.2 incubated for 6 hrs by dual luciferase reporter gene assay; type: functional, cell-based

T2 sequence (Q15743 whole entry): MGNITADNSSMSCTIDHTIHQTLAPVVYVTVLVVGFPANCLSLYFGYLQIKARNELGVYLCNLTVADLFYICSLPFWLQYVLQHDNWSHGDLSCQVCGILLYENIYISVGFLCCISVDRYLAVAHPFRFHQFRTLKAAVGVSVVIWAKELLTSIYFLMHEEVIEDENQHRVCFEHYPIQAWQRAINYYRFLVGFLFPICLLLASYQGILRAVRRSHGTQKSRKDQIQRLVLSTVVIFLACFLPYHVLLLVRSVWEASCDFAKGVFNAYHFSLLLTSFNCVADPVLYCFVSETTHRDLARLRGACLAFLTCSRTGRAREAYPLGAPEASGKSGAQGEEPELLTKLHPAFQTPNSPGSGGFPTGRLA
T3 sequence (Q8IYL9 whole entry): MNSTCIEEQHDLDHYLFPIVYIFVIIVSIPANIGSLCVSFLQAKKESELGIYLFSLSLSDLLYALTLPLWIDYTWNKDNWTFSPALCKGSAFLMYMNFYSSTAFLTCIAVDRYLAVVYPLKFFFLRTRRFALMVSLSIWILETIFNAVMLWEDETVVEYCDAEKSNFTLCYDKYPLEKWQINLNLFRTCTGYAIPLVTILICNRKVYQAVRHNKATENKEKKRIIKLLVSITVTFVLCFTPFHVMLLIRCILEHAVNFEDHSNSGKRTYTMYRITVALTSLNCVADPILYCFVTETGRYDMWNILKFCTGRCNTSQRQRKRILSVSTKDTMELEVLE

Row | SMILES | Ratio [1] | IC50 [2] [nM] | other results
1 | c1ccc2c(c1)CCc1cc(Cn3ccc4ccccc43)ccc1N2 | 0.44 | – | –
2 | c1ccc2c(c1)CCc1cc(Cn3ccnc3)ccc1N2 | 1.11 | – | –
3 | CCc1nc2c(C)cc(C)nc2n1Cc1ccc2c(c1)CCc1cc(CN3CCCC3)ccc1N2 | 0.4 | – | –
4 | CCc1nc2c(C)cc(C)nc2n1Cc1ccc2c(c1)CCc1ccccc1N2 | 0.22 | 900 | –
5 | Cc1nc2ccccc2n1Cc1ccc2c(c1)CCc1ccccc1N2 | 0.57 | – | –
6 | CCc1nc2c(C)cc(C)nc2n1Cc1ccc2c(c1)CCc1cc(CN3CCCCC3)ccc1N2 | 0.39 | 67 | survival at 6.7 mg/kg/day [3]: 100%; survival at 20 mg/kg/day [4]: 62.5%; IC50 [5]: > 10000 nM; IC50 [6]: > 10000 nM
7 | CCc1nc2c(C)cc(C)nc2n1Cc1ccc(Nc2ccccc2)cc1 | 0.54 | > 10000 | –
8 | CCc1nc2ccccc2n1Cc1ccc2c(c1)CCc1ccccc1N2 | 0.44 | > 10000 | –
9 | c1ccc2c(c1)CCc1cc(Cn3cnc4ccccc43)ccc1N2 | 0.52 | > 10000 | –
10 | Cc1nccn1Cc1ccc2c(c1)CCc1ccccc1N2 | 1.24 | – | –
11 | CCc1nc2c(C)cc(C)nc2n1Cc1ccc2ccccc2c1 | 0.52 | – | –
12 | CCc1nc2c(C)cc(C)nc2n1Cc1ccc2c(c1)C=Cc1ccccc1N2 | 0.36 | – | –
13 | CCc1nc2c(C)cc(C)nc2n1Cc1ccc2c(c1)Sc1ccccc1N2 | 0.38 | 910 | –
14 | CCc1nc2c(C)cc(C)nc2n1Cc1ccc2c(c1)CCc1cc(CN3CCN(C)CC3)ccc1N2 | 0.42 | 130 | inhibition [7]: Active; inhibition [8]: Active
15 | CCc1nc2c(C)cc(C)nc2n1Cc1ccc2c(c1)CCc1cc(CN3CCOCC3)ccc1N2 | 0.41 | – | –
16 | CCc1nc2c(C)cc(C)nc2n1Cc1ccccc1 | 0.72 | – | –
17 | c1ccc2c(c1)CCc1cc(Cn3c4ccccc4c4ccccc43)ccc1N2 | 1.03 | – | –
18 | CCc1nccn1Cc1ccc2c(c1)CCc1ccccc1N2 | 1.22 | – | –
